Ki data for 21 compounds are collected here from US5750550A, “2-(pyrazol-5-yl-oxymethyl)-1,2-benzisothiazol-3 (2H)-One 1, 1-dioxides and compositions and method of use thereof” (Sanofi, priority 1995, dated 1998).

This experiment addresses T1, human leukocyte elastase (Homo sapiens, UniProt P08246).
T1 sequence (P08246 30-267): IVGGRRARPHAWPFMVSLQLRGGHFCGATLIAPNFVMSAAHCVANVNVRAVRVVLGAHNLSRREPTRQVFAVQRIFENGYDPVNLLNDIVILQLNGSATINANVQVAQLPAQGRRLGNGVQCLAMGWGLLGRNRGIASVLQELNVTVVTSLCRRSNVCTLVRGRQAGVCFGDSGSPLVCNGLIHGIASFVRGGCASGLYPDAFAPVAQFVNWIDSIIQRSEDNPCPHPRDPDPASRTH
Description: human leukocyte elastase (HLE) inhibitory activity, substrate MeOSuc-Ala-Ala-Pro-Val-pNA. The note with it: pH 7.8, 25° C., steady-state velocities. In kind it is biochemical. The method, then:
The test compound (inhibitor) is dissolved in DMSO in a vial to produce an inhibitor stock solution which has a concentration in the range of 200-1000 μM. The inhibitor stock solution is diluted (1:4, 1:16 and 1:64) into assay vials (vials 1, 2 and 3 respectively) containing 2.4 mL of buffer solution (50 mM N-[2-hydroxyethyl] piperazine-N'-[2-ethanesulfonic acid]/NaOH, 500 mM NaCl, pH 7.8 at 25° C.) and DMSO is added so that the total volume in each vial is 3.2 mL. 70 μL, 50 μL, 35 μL and 25 μL of inhibitor from assay vial 1 is placed into the first four wells of a 96-well microtiter plate and each well is made up to 90 μL total volume with the addition of a 25% DMSO/buffer solution. The inhibitor from assay vials 2 and 3 is processed in a similar manner and placed in wells 5-12 respectively to afford a total of 12 different inhibitor concentrations. Four wells (wells 13-16) containing 90 μL of the 25% DMSO/buffer solution but no inhibitor are also run simultaneously with the inhibited wells as a control. 150 μL of substrate solution (prepared by the addition of 500 μL of the human leukocyte elastase (HLE) substrate MeOSuc-Ala-Ala-Pro-Val-pNA (18.7 mM in DMSO) to 19.5 mL of buffer solution) is then added simultaneously into each of the 16 wells and the solution in each well was thoroughly mixed.
The 96-well microtiter plate is placed into a Microplate Reader #89815A spectrophotometer and 110 μL of the enzyme solution (prepared as follows: a mixture of 20 mL of buffer solution and 20 mg of bovine serum albumen is gently vortexed in a scintillation vial and 5 μL HLE stock solution (1 mg/mL dissolved in deionized water) is added) is added simultaneously to each of the 16 wells. Each of the solutions in the wells is throughly mixed and then the time-dependent absorbance data is collected at an absorbance of 410 nm until the assay is complete. It should be noted that although this assay method can be done manually, it is preferred to perform the assay robotically using a Hewlett Packard MicroAssay System Robot. the absorbance versus time data thus obtained affords curves the final slope of which is equal to the final steady-statevelocities (VF). Using the program ENZFITTER (Elsevier software), the progress curves for the four control assays ([I]=0 are fit by linear regression to yield the enzyme reaction velocity values in the absences of inhibitor (Vo) which are averaged to produce a single fixed value. The inhibition constant Ki (nM) is then obtained from a plot of [formula] which affords a linear plot wherein: [formula] and [S] is the concentration of the substrate and Km is the Michaelis constant.
Table I summarizes the results obtained from the testing of compounds of the invention for human leukocyte elastase inhibitory activity.
For `COc1cc(C(C)C)c2c(c1)S(=O)(=O)N(COc1cc(-c3ccccc3)nn1C)C2=O` [2 (b), 4-isopropyl-6-methoxy-2-(1-methyl-3-phenylpyrazol-5-yl-oxymethyl)-1,2-benzisothiazol-3(2H)-one 1,1-dioxide], the Ki (as a rule, the equilibrium dissociation constant of an inhibitor or competing ligand from its target) amounted to 0.47 nM.

With `COc1cc(C(C)C)c2c(c1)S(=O)(=O)N(COc1cc(C(F)(F)F)nn1C)C2=O` [Example 25, 4-isopropyl-6-methoxy-2-(1-methyl-3-trifluoromethylpyrazol-5-yl-oxymethyl)-1,2-benzisothiazol-3(2H)-one 1,1-dioxide], affinity was put at a Ki of 0.1 nM.

On to `CC(C)c1cc(O)cc2c1C(=O)N(COc1cc(C(F)(F)F)nn1-c1ccc(Cl)cc1)S2(=O)=O` [39 (a), 4-isopropyl-6-hydroxy-2-[1-(4-chlorophenyl)-3-trifluoromethylpyrazol-5-yl-oxymethyl]-1,2-benzisothiazol-3(2H)-one 1,1-dioxide], for which affinity was put at a Ki of 1.9 nM.

Regarding `COc1ccc(-n2nc(C(F)(F)F)cc2OCN2C(=O)c3c(C(C)C)cc(OC)cc3S2(=O)=O)cc1` [15 (b), 4-isopropyl-6-methoxy-2-[1-(4-methoxyphenyl)-3-trifluoromethylpyrazol-5-yl-oxymethyl)-1,2-benzisothiazol-3(2H)-one 1,1-dioxide], affinity was put at a Ki of 0.13 nM.

As for `CCOc1cc(OCC)c2c(c1)S(=O)(=O)N(COc1cc(C(F)(F)F)nn1-c1ccccc1)C2=O` [Example 47, 4,6-diethoxy-2-[1-phenyl-3-trifluoromethylpyrazol-5-yl-oxymethyl]-1,2-benzisothiazol-3(2H)-one 1,1-dioxide], the Ki amounted to 0.5 nM.

Compound `CC(C)c1cc(OCCC(C)(C)C(=O)O)cc2c1C(=O)N(COc1cc(C(F)(F)F)nn1-c1ccccc1)S2(=O)=O` [38 (d)] showed a Ki of 0.18 nM.

Consider `COc1cc(C(C)C)c2c(c1)S(=O)(=O)N(COc1cc(C(F)(F)F)nn1-c1ccc(Cl)cn1)C2=O` [28 (c), 4-isopropyl-6-methoxy-2-[1-(5-chloro-2-pyridyl)-3-(trifluoromethyl)pyrazol-5-yl-oxymethyl]-1,2-benzisothiazol-3(2H)-one 1,1-dioxide], for which the Ki was 0.089 nM. This Ki is about 2-fold lower than that of the compound before.

Compound `COc1cc(C(C)C)c2c(c1)S(=O)(=O)N(COc1cc(-c3ccccc3)nn1-c1ccccc1)C2=O` [5 (b), 4-isopropyl-6-methoxy-2-(1,3-diphenylpyrazol-5-yl-oxymethyl)-1,2-benzisothiazol-3(2H)-one 1,1-dioxide] displayed a Ki of 0.92 nM.

On to `COc1cc(C(C)C)c2c(c1)S(=O)(=O)N(COc1cc(Cl)nn1-c1ccccc1)C2=O` [24 (c), 4-isopropyl-6-methoxy-2-(1-phenyl-3-chloropyrazol-5-yl-oxymethyl)-1,2-benzisothiazol-3(2H)-one 1,1-dioxide], for which the affinity corresponds to a Ki of 0.026 nM.

For the compound `COc1cc(C(C)C)c2c(c1)S(=O)(=O)N(COc1cc(C(F)(F)F)nn1-c1ccccc1Cl)C2=O` [30 (b), 4-isopropyl-6-methoxy-2-[1-(2-chlorophenyl)-3-trifluoromethylpyrazol-5-yl-oxymethyl]-1,2-benzisothiazol-3(2H)-one 1,1-dioxide], the Ki is 0.07 nM.

Regarding `COc1cc(C(C)C)c2c(c1)S(=O)(=O)N(COc1cc(-c3ccncc3)nn1-c1ccc(Cl)cc1)C2=O` [14 (c), 4-isopropyl-6-methoxy-2-[1-(4-chlorophenyl)-3-(4-pyridyl)pyrazol-5-yl-oxymethyl]-1,2-benzisothiazol-3(2H)-one 1,1-dioxide], the Ki was found to be 0.19 nM.

For the compound `CC(C)c1cc(OCCCC(=O)O)cc2c1C(=O)N(COc1cc(C(F)(F)F)nn1-c1ccccc1)S2(=O)=O` [17 (b), 4-isopropyl-6-[3-(carboxy)propoxy]-2-(1-phenyl-3-trifluoromethylpyrazol-5-yl-oxymethyl)-1,2-benzisothiazol-3(2H)-one 1,1-dioxide], affinity was put at a Ki of 0.036 nM.

For `COc1cc(C(C)C)c2c(c1)S(=O)(=O)N(COc1c(Cl)c(C(F)(F)F)nn1-c1ccccc1)C2=O` [16 (b), 4-isopropyl-6-methoxy-2-(1-phenyl-3-trifluoromethyl-4-chloropyrazol-5-yl-oxymethyl)-1,2-benzisothiazol-3(2H)-one 1,1-dioxide], the Ki is 1.6 nM.

Consider `COc1cc(C(C)C)c2c(c1)S(=O)(=O)N(COc1cc(C)nn1-c1ccc([N+](=O)[O-])cc1)C2=O` [Example 7, 4-isopropyl-6-methoxy-2-[1-(p-nitrophenyl)-3-methylpyrazol-5-yl-oxymethyl]-1,2-benzisothiazol-3(2H)-one 1,1-dioxide], for which the affinity corresponds to a Ki of 0.076 nM.

Turning to `COc1cc(C(C)C)c2c(c1)S(=O)(=O)N(COc1cc(C(F)(F)F)nn1-c1ccc3ccccc3n1)C2=O` [27 (b), 4-isopropyl-6-methoxy-2-[1-(2-quinolinyl)-3-(trifluoromethyl)pyrazol-5-yl-oxymethyl]-1,2-benzisothiazol-3(2H)-one 1,1-dioxide], the Ki stood at 0.15 nM.

On to `COc1cc(C(C)C)c2c(c1)S(=O)(=O)N(COc1cc(C(F)(F)F)nn1-c1cccc(C(F)(F)F)n1)C2=O` [36 (b), 4-isopropyl-6-methoxy-2-[1-(6-trifluoromethyl-2-pyridyl)-3-trifluoromethylpyrazol-5-yl-oxymethyl]-1,2-benzisothiazol-3(2H)-one 1,1-dioxide], for which the Ki came to 0.029 nM.

Turning to `CC(C)c1cc(OCCCCCC(=O)O)cc2c1C(=O)N(COc1cc(C(F)(F)F)nn1-c1ccccc1)S2(=O)=O` [37 (f), 4-isopropyl-6-[5-(carboxy)-enthyloxy]-2-(1-phenyl-3-trifluoromethylpyrazol-5-yl-oxymethyl)-1,2-benzisothiazol-3(2H)-one 1,1-dioxide], the affinity, expressed as Ki, was 0.081 nM. Compared with the last compound, the Ki is about 2.8-fold higher.

With `CCN(CC)CCN(C)C(=O)c1cc(OCN2C(=O)c3c(C(C)C)cc(OC)cc3S2(=O)=O)n(-c2ccccc2)n1` [31 (b)], the Ki was 0.143 nM.

In turn, `COc1cc(C(C)C)c2c(c1)S(=O)(=O)N(COc1cc(C#N)nn1-c1ccc(Cl)cc1)C2=O` [Example 46, 4-isopropyl-6-methoxy-2-[1-(4-chlorophenyl)-3-cyanopyrazol-5-yl-oxymethyl]-1,2-benzisothiazol-3(2H)-one 1,1-dioxide] had a Ki of 0.19 nM.

`CC(C)c1cc(O)cc2c1C(=O)N(COc1cc(C(F)(F)F)nn1-c1ccccc1)S2(=O)=O` [Example 9, 4-iso-ropyl-6-hydroxy-2-(1-phenyl-3-trifluoromethylpyrazol-5-yl-oxymethyl)-1,2-benzisothiazol-3(2H)-one 1,1-dioxide] yielded a Ki of 0.78 nM.

For the compound `COc1cc(C(C)C)c2c(c1)S(=O)(=O)N(COc1ccnn1-c1ccccc1)C2=O` [6 (c), 4-isopropyl-6-methoxy-2-(1-phenylpyrazol-5-yl-oxymethyl)-1,2-benzisothiazol-3(2H)-one 1,1-dioxide], the Ki turned out to be 0.145 nM. This Ki lies about 5.4-fold lower than the previous one.
